Results: patent US6022879A, “Bathocuproine treatment of neurologic disease” (priority 1998, dated 2000)
Values belong to the compound of their own block, whether it stands above or below them.

Key:
[1] = biological target: T1, human Cu,Zn superoxide dismutase (SOD), FALS mutant A4V (Homo sapiens, UniProt P00441, A5V); assay: Reduction of enzyme-bound copper of SOD by a reductant, monitored spectrally at 680 nm; assay type: biochemical; conditions: Kpi pH 7.4, 37 degrees C
T1 construct: made in house; host or cells: E. coli BL21(DE3) plysS, pET-3d
T1 sequence (P00441 whole entry A5V): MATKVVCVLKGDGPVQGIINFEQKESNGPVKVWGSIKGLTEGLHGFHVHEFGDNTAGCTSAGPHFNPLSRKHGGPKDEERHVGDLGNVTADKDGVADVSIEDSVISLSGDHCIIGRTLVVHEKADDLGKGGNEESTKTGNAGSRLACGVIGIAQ
Method: (§1) SODs were present at a subunit concentration of 0.43 mM in 0.5 ml of 0.1 mM Kpi, pH 7.4 at 37 degrees C. Ascorbate (0.5 mM) was added at time zero and reduction was monitored spectrally at 680 nm for 1 hr.
(§2) SODs were present at a subunit concentration of 0.43 mM in 0.5 ml of 0.1 mM Kpi, pH 7.4 at 37 degrees C. H2 O2 (0.4 mM) was added at time zero and reduction was monitored spectrally at 680 nm for 5 minutes.
(§3) For more than two years the notion that FALS SODs could act as peroxidases and generate hydroxyl radical has been a subject of debate. However, H2 O2 can rapidly reduce Cu,Zn SOD and generate superoxide as a byproduct. (It is the addition of a second molecule of H2 O2 to give --OH that is extremely slow and of questionable significance). […] For example, it is possible to assess superoxide production from reduced SOD using the tetranitromethane (TNM) capture assay described by Hodgson and Fridovich (7).

[2] = biological target: T2, human Cu,Zn superoxide dismutase (SOD), FALS mutant D90A (Homo sapiens, UniProt P00441, D91A); assay: as above; assay type: biochemical; conditions: Kpi pH 7.4, 37 degrees C
T2 construct: made in house; host or cells: E. coli BL21(DE3) plysS, pET-3d
T2 sequence (P00441 whole entry D91A): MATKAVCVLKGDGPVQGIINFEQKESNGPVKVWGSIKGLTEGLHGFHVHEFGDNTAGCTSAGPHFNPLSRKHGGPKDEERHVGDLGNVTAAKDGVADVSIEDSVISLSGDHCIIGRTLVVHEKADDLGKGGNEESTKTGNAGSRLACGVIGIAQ
Method: as §1, §2, §3

[3] = biological target: T3, human Cu,Zn superoxide dismutase (SOD), FALS mutant G93A (Homo sapiens, UniProt P00441, G94A); assay: as above; assay type: biochemical; conditions: Kpi pH 7.4, 37 degrees C
T3 construct: made in house; host or cells: E. coli BL21(DE3) plysS, pET-3d
T3 sequence (P00441 whole entry G94A): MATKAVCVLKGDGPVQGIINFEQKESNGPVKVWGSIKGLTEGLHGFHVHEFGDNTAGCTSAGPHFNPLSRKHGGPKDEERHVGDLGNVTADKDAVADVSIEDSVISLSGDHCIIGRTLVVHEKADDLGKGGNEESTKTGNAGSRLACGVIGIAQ
Method: as §1, §2, §3

[4] = biological target: T4, human Cu,Zn superoxide dismutase (SOD), wild type (Homo sapiens, UniProt P00441); assay: as above; assay type: biochemical; conditions: Kpi pH 7.4, 37 degrees C
T4 construct: made in house; host or cells: E. coli
T4 sequence (P00441 whole entry): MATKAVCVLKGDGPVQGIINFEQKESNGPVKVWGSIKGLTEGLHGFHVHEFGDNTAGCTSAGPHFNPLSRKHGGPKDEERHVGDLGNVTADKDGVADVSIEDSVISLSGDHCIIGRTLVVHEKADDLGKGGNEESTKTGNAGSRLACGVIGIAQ
Method: as §1, §2, §3

[5] = biological target: T5, human Cu,Zn superoxide dismutase (SOD), site-directed mutant D124N (Asp124 to Asn, model zinc-deficient SOD) (Homo sapiens, UniProt P00441, D125N); assay: Reduction of enzyme-bound copper of SOD by a reductant, monitored spectrally at 680 nm (stopped-flow for ascorbate); assay type: biochemical
T5 construct: made in house; host or cells: E. coli
T5 sequence (P00441 whole entry D125N): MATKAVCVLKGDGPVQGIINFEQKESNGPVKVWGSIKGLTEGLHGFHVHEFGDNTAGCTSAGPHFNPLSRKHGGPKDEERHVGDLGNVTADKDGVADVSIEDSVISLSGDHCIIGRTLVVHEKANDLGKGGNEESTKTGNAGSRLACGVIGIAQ
Method: To circumvent this problem, a site-directed human SOD mutant was prepared wherein aspartate124 was changed to asparagine (D124N).
as §1, §2, §3

[6] = system: G93A transgenic mice (overexpress human G93A ALS SOD mutant); assay: Bathocuproine in ALS SOD transgenic mice: onset and progression of paralysis; assay type: in vivo, mouse; conditions: intraperitoneal in soybean oil, daily 0.51 mg/100 g body weight, from 190 day old G93A mice
Method: Neither the overall efficiency nor the kinetics of Cu+1 removal was altered by sulfonic acid substituents on the ring(s) of the parent bathocuproine compound. Thus, the sulfonic acid groups serve mainly to increase water solubility and are not fundamental to copper binding activity. The unsubstituted parent compound, bathocuproine, is very lipid soluble and much more likely to cross the blood-brain barrier. In G93A transgenic mice, bathocuproine was dissolved in soybean oil and injected intraperitoneally at a daily dose of 0.51 mg/100 g body weight. Assuming uniform tissue distribution and fluid fraction equal to 0.7 of the mouse's body weight, this dose should give a cellular concentration of 20 µM or roughly a 4-fold molar excess over SOD protein concentration. […] After onset, paralysis progresses rapidly up the trunk and is ultimately fatal within about 14 days. Bathocuproine injections is initiated in 190 day old mice and the mice are observed for onset and progression of paralysis relative to untreated littermates. […] A group of non-transgenic mice are also injected to control for potential toxicities from bathocuproine itself.

[7] = 0.4 mM H2O2, SOD subunit 0.43 mM, 5 minutes
[8] = 0.5 mM ascorbate, SOD subunit 0.43 mM, 1 hr

t1/2 for reduction by H2 O2 [1, 7]: 21.2 s
t1/2 for reduction by H2 O2 [2, 7]: 30.9 s
t1/2 for reduction by H2 O2 [3, 7]: 24.2 s
t1/2 for reduction by H2 O2 [4, 7]: 30.5 s
t1/2 for reduction by H2 O2 ([5]; 0.4 mM H2O2, SOD subunit 0.43 mM, Kpi pH 7.4, 37 degrees C, 680 nm, 5 minutes): 26.7 s
SMILES: OO [H2 O2, hydrogen peroxide]

t1/2 for reduction of SOD copper by ascorbate [1, 8]: 1550 s
t1/2 for reduction of ascorbate [2, 8]: 1770 s
t1/2 for reduction of ascorbate [3, 8]: 1240 s
t1/2 for reduction by ascorbate ([4]; 0.5 mM ascorbate, SOD subunit 0.43 mM): 1700 s
rate of ascorbate-mediated reduction relative to wild-type SOD ([5]; 0.5 mM ascorbate, D124N versus wild-type): ~200 fold
t1/2 for reduction of SOD copper by ascorbate ([5]; 0.5 mM ascorbate, SOD subunit 0.43 mM, Kpi pH 7.4, 37 degrees C, stopped-flow spectroscopy): 8.9 s
SMILES: O=C1O[C@H]([C@@H](O)CO)C(O)=C1O [ascorbate, ascorbic acid]

SMILES: Cc1cc(-c2ccccc2)c2ccc3c(-c4ccccc4)cc(C)nc3c2n1 [bathocuproine]
onset and progression of paralysis relative to untreated littermates [6]: delay of onset or slowing of progression is shown
